Reference: patent publication US20030055244A1, “Pyridyl-containing spirocyclic compounds as inhibitors of fibrinogen-dependent platelet aggregation” (priority 1999, published 2003)

System: human platelet-rich plasma
Assay: Platelet aggregation assay (Aggregation-Human PRP/ADP)
Type: cell-based
Conditions: read-out: PRP (ADP) IC50
Procedure: Platelet-rich plasma was prepared from healthy human volunteers for use in determining inhibition of platelet aggregation by the compounds.
Platelet-rich plasma was prepared at room temperature by centrifugation of the citrated whole blood at 100 × g for twelve minutes. The platelet rich plasma contained approximately 200-400,000 platelets/μl.
Platelet aggregation was assayed in a 4-channel platelet aggregation profiler (PAP-4, Biodata, Hatboro, Pa.) according to the manufacturers directions. Inhibition of platelet aggregation was studied by adding varying amounts of adenosine diphosphate (ADP) to stirred human platelet-rich plasma. Specifically, the human platelet-rich plasma was incubated with the compound being tested for 1 minute at 37° C. prior to the addition of a variety of aggregating agents most often ADP 5 μM to 20 μM, but also 1 μg/ml collagen, 1 μM U46619 and 0.3 μM platelet activating factor.

| SMILES | IC50 |
| --- | --- |
| CC(CNC(=O)C1CCC2(CC1)CCN(c1ccncc1)CC2)CC(=O)O (centres unmarked) [Example 18, 3-methyl-4-({[3-(4-pyridyl)-3-azaspiro[5.5]undec-9-yl]carbonyl}amino) butanoic acid] | 3 µM |
| CC(CC(=O)O)NC(=O)C1CCC2(CC1)CCN(c1ccncc1)CC2 (centres unmarked) [Example 17, 3-({[3-(4-pyridyl)-3-azaspiro[5.5]undec-9-yl]carbonyl}amino)butanoic acid] | 14.8 µM |
| CCCCOC(=O)N[C@@H](CNC(=O)C1CCC2(CC1)CCN(c1ccncc1)CC2)C(=O)O [Example 16, (2S)-2-{[(butyloxyl)carbonyl]amino}-3-({[3-(4-pyridyl)-3-azaspiro[5.5]undec-9-yl]carbonyl}amino)propanoic acid] | 1.88 µM |

Same assay, conditions: read-out: PRP (ADP-Citrate) IC50

| SMILES | IC50 |
| --- | --- |
| O=C(O)CCCCC(=O)N1CCC2(CCN(c3ccncc3)CC2)C1 [Example 22, 6-oxo-6-(8-(4-pyridyl)-2,8-diazaspiro[4.5]dec-2-yl)hexanoic acid] | > 80 µM |
| O=C(O)CN1CCC(CC(=O)N2CCC3(CC2)CCN(c2ccncc2)C3)CC1 [Example 33, 2-(4-{2-oxo-2-[2-(4-pyridyl)-2,8-diazaspiro[4.5]dec-8-yl]ethyl}piperidino)acetic acid] | 80 µM |
| O=C(O)CCN1CCN(C(=O)N2CCC3(CC2)CCN(c2ccncc2)C3)CC1=O [Example 30, 3-(2-oxo-4-((2-(4-pyridyl)-2,8-diazaspiro[4.5]dec-8-yl)carbonyl)piperazino)propanoic acid] | 1.29 µM |
| O=C(O)CCN1CCN(C(=O)N2CCC3(CCN(c4ccncc4)CC3)C2)CC1=O [Example 25, 3-(2-oxo-4-((8-(4-pyridyl)-2,8-diazaspiro[4.5]dec-2-yl)carbonyl)piperazino)propanoic acid] | 8.3 µM |
| CCCCOC(=O)N[C@@H](CCC(=O)N1CCC2(CC1)CCN(c1ccncc1)C2)C(=O)O [Example 35, (2S)-2-[(butoxycarbonyl)amino]-5-oxo-5-[2-(4-pyridyl)-2,8-diazaspiro [4.5]dec-8-yl]pentanoic acid] | 4 µM |
| O=C(O)CN1CCC(N2CCC3(CCN(c4ccncc4)C3)CC2)CC1 [Example 32, 2-{4-(2-(4-pyridyl)-2,8-diazaspiro[4.5]dec-8-yl]piperidino}acetic acid] | 9.5 µM |
| O=C(O)COc1ccc(C(=O)N2CCC3(CC2)CCN(c2ccncc2)C3)cc1 [Example 52, 2-(4-{[2-(4-pyridyl)-2,8-diazaspiro[4.5]dec-8-yl]carbonyl}phenoxy) acetic acid] | 11.3 µM |

Same assay, conditions: read-out: PRP IC50

| SMILES | IC50 |
| --- | --- |
| O=C(O)COC1CCN(CC(=O)N2CCC3(CC2)CCN(c2ccncc2)C3)CC1 [Example 50, 2-[(1-{2-oxo-2-[2-(4-pyridyl)-2,8-diazaspiro[4.5]dec-8-yl]ethyl}-4-piperidyl)oxyl]acetic acid] | 80 µM |
| CCCCS(=O)(=O)N[C@@H](CCC(=O)N1CCC2(CC1)CCN(c1ccncc1)CC2)C(=O)O [Example 6, 2(S)-2-[(butylsulfonyl)amino]-5-oxo-5-[9-(4-pyridyl)-3,9-diazaspiro [5.5]undec-3-yl]pentanoic acid] | 0.79 µM |
| CN(CC(=O)O)C1CCN(C(=O)N2CCC3(CC2)CCN(c2ccncc2)C3)CC1 [Example 46, 2-[methyl(1-{[2-(4-pyridyl)-2,8-diazaspiro[4.5]dec-8-yl]carbonyl}-4-piperidyl)amino]acetic acid] | 10 µM |
| Cc1ccc(S(=O)(=O)N[C@@H](CCC(=O)N2CCC3(CC2)CCN(c2ccncc2)CC3)C(=O)O)cc1 [Example 7, 2(S)-2-{[(4-methylphenyl)sulfonyl]amino}-5-oxo-5-[9-(4-pyridyl)-3,9-diazaspiro [5.5]undec-3-yl]pentanoic acid] | 0.077 µM |
